Two molecules from patent publication US20130041005A1, “PHARMACEUTICAL COMPOSITIONS COMPRISING NEUROPILIN INHIBITORS, AND THEIR USE FOR THE PREVENTION AND/OR TREATMENT OF ANGIOGENIC DISORDERS AND CANCERS” (TRAGEX PHARMA, priority 2011, published 2013) can be followed below.

Format in all cases: cell-based
One assay relates to OPM-2. In words: WST-1 proliferation assay, OPM-2. The conditions noted are these: Homo sapiens; Myeloma OPM-2; read-out: Anti-proliferative activity IC50 (μM) ± SD. As for the experimental part:
All the cancer cell lines were maintained in cultured in DMEM GlutaMAX™ (GIBCO Invitrogen, France, cat no 31966047) enhanced with 10% foetal bovine serum (GIBCO Invitrogen, France, cat no 10270-106) and 1% penicillin G/streptomycin (GIBCO Invitrogen, France, cat no 15140-122). Only Panc-10.5 cells were cultivated in RPMI 1640 medium (Gibco) supplemented with 2 mM L-glutamine, 1.5 g/L sodium bicarbonate, 4.5 g/L glucose, 10 mM HEPES, 1 mM sodium pyruvate, 10 Units/ml human insulin, […] (SVF): 15% (75 ml in 500 ml of medium).
Cells were grown as subconfluent monolayer and cultured in 75 cm^2 flasks at 37° C., 5% CO2 in a humidified atmosphere, and medium was changed every two days. […]
(§1) The cell proliferation WST-1 assay is a colorimetric assay for the quantification of cell proliferation and viability, based on the enzymatic cleavage of the tetrazolium salt WST-1 added to the culture medium, to a water soluble colored formazan dye, detected by absorbance at 450 nm, by mitochondrial succinate-tetrazolium reductase in viable cells. […]
After an incubation period of 72 h, at day 4, were prepared the 19 ml medium with reagent WST-1 1 ml ([…]). […] The cells were incubated at 37° C. in a humidified atmosphere of 5% CO2 for 1 h 30 and the absorbance at 450-655 nm was measured by Microplate Manager 5.2 (Bio-Rad).
On the technique in general: Tetrazolium assays rely on reduction of a dye to a coloured formazan, in cell work by metabolically active cells.

For another assay, the system named is HUVEC. In words: Tube maintenance assay. The conditions noted are these: VEGF-A165-treated HUVEC in collagen, 24 h treatment (FIG. 3C). The procedure:
A 96-well plate was coated with 70 μl of collagen/media solution (NaOH 0.1N, 48 μL 10× Na2HCO3 and 0.5 mL EBM2) and allowed to solidify at 37° C. for 3 min. HUVEC were seeded at a density of 8×10^5 cells for well in 100 μl complete culture medium. After confluent monolayer formation, a second collagen gel layer with EBM2 supplemented with 50 ng/ml of VEGF-A165 was added over cells and plates were incubated for 24 h at 37° C. and 5% CO2 to allow tube formation.

Another assay has as its system MDA-MB-436. In words: WST-1 proliferation assay, MDA-MB-436. The conditions noted are these: Homo sapiens; Breast MDA-MB-436, 72 h; read-out: Anti-proliferative activity IC50 (μM) ± SD.
Text: Several cancer cell lines were used: breast cancer cells (MDA-MB-231 (ATTCC® Number HTB-26™), MDA-MB-436 (ATTCC® Number HTB-130™), MDA-MB-438, BT-474 (ATTCC® Number HTB-20™)); cervical cancer cells (HeLa (ATTCC® Number CCL-2™)); colon cancer cells (HCT-116 (ATTCC® Number CCL-247™) and HT-29 (ATTCC® Number HTB-38™)); osteosarcoma cells (U2OS (ATTCC® Number HTB-96™)); pancreas cancer cells (MIA PaCa-2 (ATTCC® Number CRL-1420™) and Panc-10.5 (ATTCC® Number CRL-2547™)); prostate cancer cells (PC-3 (ATTCC® Number CRL-1435™) and LNCaP (ATTCC® Number CRL-1740™)); brain cancer cells (U87 glioblastoma (ATTCC® Number HTB-14™) and SH-SYSY neuroblastoma (ATTCC® Number CRL-2266™)). […]
After observation of cells under the microscope, old media were removed and the adherent cells washed gently twice with PBS (Phosphate Buffer Saline, —Ca^2+, —Mg^2+, Lonza cat no: 17-512F/12). […] 50 μl of this solution were transferred in 20 μl of isotonic solution and the cells were counted by count cellular (Beckman Coulter). […]
as §1

Molecules are shown by their SMILES.

Broadly, the IC50 is the concentration at which inhibition is half-maximal. On to `Cc1ccc(-c2nc3ccccc3[nH]2)cc1NC(=S)NC(=O)c1ccc2c(c1)OCCO2` [Compound 1, N-[5-(1H-benzimidazol-2-yl)-2-methylphenyl]-N′-(2,3-dihydro-1,4-benzodioxin-6-ylcarbonyl)thiourea], for which the IC50 with OPM-2 amounted to 2.5 ± 0.09 µM; in the assay on MDA-MB-436, 1.5 ± 0.02 µM. Further, the “maintenance of new blood vessels (tube maintenance)” value with HUVEC is “effectively inhibited”.
Turning to `O=C(NC(=S)Nc1cccc(-c2nc3ccccc3[nH]2)c1)c1ccc2c(c1)OCCO2` [Compound 2, N-[3-(1H-benzimidazol-2-yl)phenyl]-N′-(2,3-dihydro-1,4-benzodioxin-6-ylcarbonyl)thiourea], the values for the half-maximal inhibitory concentration (IC50) with OPM-2 and in the assay with MDA-MB-436 were 0.5 ± 0.01 µM and 2.3 ± 0.03 µM, respectively. Moreover, in the assay with HUVEC, the “maintenance of new blood vessels (tube maintenance)” value is on record as “effectively inhibited”.
